Where no end group is shown, it is not given here.
System: Sprague-Dawley rats
Assay: Delayed alternation test (T-maze) for cognitive function improvement
Assay type: in vivo, rat
Conditions: oral, 100 mg/ml solution; for effect of improving cognitive function and memory (T-maze performance): delay of 5 seconds between trials, 9 days training; for effect of improving cognitive function and memory in the early stage of administration: delay of 5 seconds, early stage of 9-day training
Experimental: Experimental animals were white male Sprague-Dawley rats (140 to 180 g, Daehan Biolink Co., Ltd.). These rats were housed in cages (4 rats per cage) in a constant environment (temperature: 25±1° C., and relative humidity: 60±10%) for one week and allowed to access water ad libitum. At this time, the feed was fed in a limited manner so that 80% of the body weight was kept. In this experiment, a total of 50 rats were used. The rats were adapted to the maze for 5 minutes a day for 3 days before training.
In the first trial, the animals were adapted to the start arm. The first trial is a “forced-choice trial”, in which one arm was blocked with the door and when the animal entered the other arm, the rear was blocked with the door. The animal was considered as entering the arm when all four paws passed through the entrance. The animal was allowed to eat feed in the corresponding arm for 60 seconds. The next trials were “free-choice trials”, in which the animal was free to choose the direction of the arm (left or right) starting from the start arm. The animal was made to be able to eat food as a reward only when it entered the arm that entered in the previous trial and the opposite arm.
The trials were performed with delays of 5 seconds and 20 seconds, and the cut-off time of each trial was set to 60 seconds. The number of times the animal entered the forced-choice arm and the time taken to enter the arm were measured. The same procedure was performed for 9 days with 10 trials per day, followed by assessment.
The silk peptides NF1, NF2 and TF1 to TF9 were prepared into solutions, each containing 100 mg/ml of each peptide, and were administered orally. All the samples were dissolved in distilled water and administered orally.

Row | Substance | effect of improving cognitive function and memory (T-maze performance) | effect of improving cognitive function and memory in the early stage of administration
1 | Ile-Gly-Gln-Gly (IGQG; printed: Ile-Gly-Gln-Gly) [Peptide P2-4] | relatively low | –
2 | Ile-Gly-Val-Ala (IGVA; printed: Ile-Gly-Val-Ala) [Peptide P2-2] | relatively better | –
3 | Ile-Gly-Val-Ala-Thr (IGVAT; printed: Ile-Gly-Val-Ala-Thr) [Peptide F1] | high effect of improving cognitive function and memory, compared to P2-2 | high activity of improving cognitive function and memory in an early stage, compared to P2-2
4 | Ile-Gly-Tyr-Val (IGYV; printed: Ile-Gly-Tyr-Val) [Peptide P2-1] | relatively low | –
5 | Ala-Gly-Gly-Ala (AGGA; printed: Ala-Gly-Gly-Ala) [Peptide P4-1] | – | significantly increased effect of improving cognitive function and memory in the early stage of administration
6 | Ile-Gly-Ala-Tyr (IGAY; printed: Ile-Gly-Ala-Tyr) [Peptide P2-3] | relatively low | –
7 | Tyr-Gly-Val-Ile (YGVI; printed: Tyr-Gly-Val-Ile) [Peptide P1-5] | increased effect of improving cognitive function and memory | –
8 | Tyr-Gly-Gly-Ala (YGGA; printed: Tyr-Gly-Gly-Ala) [Peptide P1-2] | increased effect of improving cognitive function and memory | –
9 | YGGYGI [Peptide P5-1] | clearly better effect of improving cognitive function and memory than P4-2 | excellent activity of improving cognitive function and memory in the early stage
10 | Ile-Gly-Val-Ala-Tyr (IGVAY; printed: Ile-Gly-Val-Ala-Tyr) [Peptide F2] | high effect of improving cognitive function and memory, compared to P2-2 | high activity of improving cognitive function and memory in an early stage, compared to P2-2
11 | Tyr-Gly-Ala-Ala (YGAA; printed: Tyr-Gly-Ala-Ala) [Peptide P1-3] | increased effect of improving cognitive function and memory | –
12 | Ile-Gly-Val-Ala-Gly (IGVAG; printed: Ile-Gly-Val-Ala-Gly) [Peptide F3] | high effect of improving cognitive function and memory, compared to P2-2 | high activity of improving cognitive function and memory in an early stage, compared to P2-2
13 | Tyr-Gly-Gly-Tyr (YGGY; printed: Tyr-Gly-Gly-Tyr) [Peptide P4-2] | increased effect of improving cognitive function and memory | –
14 | Tyr-Gly-Ile-Ala (YGIA; printed: Tyr-Gly-Ile-Ala) [Peptide P1-6] | increased effect of improving cognitive function and memory | significantly increased effect of improving cognitive function and memory in the early stage of administration

Source: US12264204B2, “Peptide for improving memory and preventing or alleviating cognitive dysfunction, composition comprising the same, and method for producing the same” (NATURESENSE CO., LTD., priority 2019, dated 2025)
